According to article PMC6820371, “Terbium-161 for PSMA-targeted radionuclide therapy of prostate cancer” (European Journal of Nuclear Medicine and Molecular Imaging, 2019):
“Also recorded” adds a separate entry of the source. Read-outs that look alike come from different tables or passages of the source. Marks after values point to notes of the source that are not given here.

Key:
[1] = test system: PSMA-negative PC-3 flu tumor cells; assay: Tumor cell uptake and internalization; format: cell-based; settings: 2–4 h incubation
[2] = test system: PSMA-negative PC-3 flu tumor cells; assay: Cell survival assay (clonogenic assay); format: cell-based; settings: 1 MBq/mL and higher, p > 0.05
[3] = test system: PC-3 PIP tumor-bearing mice; settings: for Median Survival: control 19 days
Protocol: Athymic nude BALB/c mice were obtained from Charles River Laboratories (Sulzfeld, Germany) at the age of 5–6 weeks. […] Therapy studies were performed with mice inoculated with PC-3 PIP cells (4 × 10^6 cells in HBSS with Ca^2+/Mg^2+) on the right shoulder (Supplementary material).
Three groups of mice (n = 6) were injected with only saline, ^161Tb-PSMA-617 (5.0 MBq; 1 nmol/mouse), or ^161Tb-PSMA-617 (10 MBq; 1 nmol/mouse) at Day 0 of the therapy, 6 days after PC-3 PIP tumor cell inoculation (Table 1). The mice were monitored by measuring body weights and the tumor sizes every other day over 12 weeks. Mice were euthanized when pre-defined endpoint criteria were reached, or when the study was terminated at Day 84 (Supplementary material). The relative body weight (RBW) was defined as [BWx/ BW0], where BWx is the body weight in gram at a given day x, and BW0 the body weight in grams at Day 0. The tumor dimension was determined by measuring the longest tumor axis (L) and its perpendicular axis (W) with a digital caliper. The tumor volume (V) was calculated according to the eq. [V = 0.5 * (L * W^2)]. The relative tumor volume (RTV) was defined as [TVx/TV0], where TVx is the tumor volume in mm^3 at a given day x, and TV0 the tumor volume in mm^3 at Day 0.
The efficacy of the radionuclide therapy was assessed by the tumor growth delay (TGDx), which was calculated as the time required for the tumor volume to increase x-fold over the initial volume at Day 0. The tumor growth delay index [TGDIx = TGDx(T)/TGDx(C)] was calculated as the TGDx ratio of treated mice (T) over control mice (C) for a 2-fold (x = 2, TGD2) and 5-fold (x = 5, TGD5) increase of the initial tumor volume. Statistical analysis was performed by a one-way ANOVA with Tukey’s multiple comparison post-test using GraphPad Prism software (version 7). A value of p < 0.05 was considered statistically significant. The median survival was calculated by Kaplan–Meier curves using GraphPad Prism software (version 7).
Methods: The therapy was started at Day 0 by injecting mice with the radioligands, 6 days after PC-3 PIP tumor cell inoculation (4×10^6 cells in HBSS with Ca^2+/Mg^2+) on the right shoulder.
Endpoint criteria: Mice were euthanized when a predefined endpoint criterion was reached or when the study was finalized at Day 84. Endpoint criteria were defined as (i) body weight loss of >15%, (ii) a tumor volume of >800 mm^3 (iii) a combination of body weight loss of >10% and a tumor volume of >700 mm^3 or (iv) signs of unease and pain or a combination thereof.

[4] = test system: mice inoculated with PC-3 PIP cells; assay: Additional therapy study (injection 2 days after tumor cell inoculation); format: in vivo; settings: for Median Survival: control 26 days
Protocol: The day of the treatment, two days after tumor cell inoculation, was defined as Day 0 of the study (Table S7).
Endpoint criteria: The mice were monitored until they reached an endpoint (definition of endpoints, see Chapter 13) or over the whole period of 38 days when the study was terminated.
Data analysis of the therapy study: The tumor growth delay indices (TGDI2 and TGDI5) were calculated as reported in the Methods of the main manuscript. The median survival was determined using GraphPad Prism software (version 7).

PC-3 PIP tumor cells = assay: Cell survival assay (clonogenic assay); format: cell-based, human; settings: 0.05–5.0 MBq/mL, p < 0.05
[5] = n-octanol/PBS distribution coefficient (logD), shake-flask method; format: physicochemical; settings: PBS pH 7.4
Protocol: The radiolabeling of PSMA-617 (Advanced Biochemical Compounds, ABX GmbH, Radeberg, Germany) with ^161Tb was performed under standard labeling conditions (Supplementary material). […] The n-octanol/PBS distribution coefficient (logD) was determined for ^161Tb-PSMA-617 (Supplementary material). All of these experiments were performed as previously reported for ^177Lu-PSMA-617 [27].
It was diluted in PBS pH 7.4 (∼500 kBq, 25 µL, 0.01 nmol) and added to polypropylene tubes containing 1475 µL PBS and 1500 µL n-octanol followed by vigorous vortexing for 1 min. Phase separation was obtained by centrifugation at 1200 rcf for 6 min. The distribution coefficients were calculated as the logarithm of the ratio of counts per minute (cpm) measured in the n-octanol phase relative to the cpm measured in the PBS pH 7.4 phase using a γ-counter (Perkin Elmer, Wallac Wizard 1480). At least three experiments were performed in quintuplicate.

[6] = test system: PC-3 PIP/flu tumor-bearing mice; settings: for Biodistribution: Blood / Biodistribution: Bone / Biodistribution: Heart / Biodistribution: Intestines / Biodistribution: Kidneys / Biodistribution: Liver / Biodistribution: Lung / Biodistribution: Muscle / Biodistribution: PC-3 PIP tumor / Biodistribution: PC-3 flu tumor / Biodistribution: Salivary glands / Biodistribution: Spleen / Biodistribution: Stomach: 5.0 MBq, 1 nmol i.v.; for Tumor-to-blood / Tumor-to-kidney / Tumor-to-liver: PC-3 PIP tumor
Protocol: Biodistribution studies were performed 12–14 days after tumor cell inoculation when the tumor xenografts reached an average tumor volume of about ~50–200 mm^3 (Supplementary material). PSMA-617 was labeled with ^161Tb at a specific activity of 5.0 MBq/nmol and diluted in saline. […] The mice were sacrificed at 1 h, 4 h, 24 h, 48 h, or 96 h post injection (p.i.) and selected tissues and organs were collected, weighed, and measured using a γ-counter (Perkin Elmer, Wallac Wizard 1480). Groups of 3–5 mice were sacrificed at each time point. The results were decay-corrected and listed as percentage of the injected activity per gram of tissue mass (% IA/g). Data are presented as the average ± standard deviation (SD).
A p-value of < 0.05 was considered statistically significant.
Biodistribution studies were performed 12–14 days after tumor cell inoculation. The experimental procedure of the biodistribution studies is described in the main manuscript.

O=C([O-])CN1CCN(CC(=O)[O-])CCN(CC(=O)NCC2CCC(C(=O)NC(Cc3ccc4ccccc4c3)C(=O)NCCCCC(NC(=O)NC(CCC(=O)O)C(=O)O)C(=O)O)CC2)CCN(CC(=O)[O-])CC1.[161Tb+3] (centres unmarked) [^161Tb-PSMA-617]
Uptake in PC-3 flu tumor cells [1]: < 0.5% | Effect on survival of PC-3 flu cells compared to ^177Lu-PSMA-617 [2]: tendency of a more pronounced effect | First mouse euthanized ([3]; 5.0 MBq/mouse): 30 days | Last mouse euthanized ([3]; 5.0 MBq/mouse): 66 days | TGDI2 ([3]; 5.0 MBq/mouse): 4.2 ± 1.2 | TGDI3 ([3]; 5.0 MBq/mouse): 2.5 ± 0.6 | Median Survival ([3]; 5.0 MBq/mouse): 36 days | First mouse euthanized ([3]; 10 MBq/mouse): 42 days | Mice still alive at the end of the study at Day 84 ([3]; 10 MBq/mouse, n = 6): two | Mice in which PC-3 PIP tumors disappeared entirely ([3]; 10 MBq/mouse, n = 6, over 12 weeks): two of the six; also recorded: two out of six | Median Survival ([3]; 10 MBq/mouse): 65 days | Last mouse euthanized ([3]; 10 MBq/mouse, study end at Day 84, 2 mice had not reached an endpoint): 84^1) Day | First mouse euthanized ([4]; 2.5 MBq): 26 days | TGDI2 ([4]; 2.5 MBq): 1.0 ± 0.4 | TGDI5 ([4]; 2.5 MBq): 1.2 ± 0.3 | Median Survival ([4]; 2.5 MBq): 31 days | Last mouse euthanized ([4]; 2.5 MBq, study end Day 38): study end | First mouse euthanized ([4]; 5.0 MBq): 30 days | TGDI2 ([4]; 5.0 MBq): 1.6 ± 0.4 | Median Survival ([4]; 5.0 MBq): 34 days | Last mouse euthanized ([4]; 5.0 MBq, study end Day 38): study end | Survival ([4]; 10 MBq): survived until the end of the study at Day 38 | Cases in which tumors started to grow ([4]; 10 MBq, from Day 25 and Day 35 on): 2 of 8 | First mouse euthanized ([4]; 10 MBq, study end Day 38): study end | Last mouse euthanized ([4]; 10 MBq, study end Day 38): study end | Reduction of tumor-cell survival compared to ^177Lu-PSMA-617 (PC-3 PIP tumor cells): significantly more effective | n-octanol/PBS distribution coefficient (logD value) [5]: −3.9 ± 0.1 | Biodistribution: Blood ([6]; 1 h p.i.): 0.49 ± 0.16 %IA/g | Biodistribution: Bone ([6]; 1 h p.i.): 0.21 ± 0.07 %IA/g | Biodistribution: Heart ([6]; 1 h p.i.): 0.21 ± 0.05 %IA/g | Biodistribution: Intestines ([6]; 1 h p.i.): 0.26 ± 0.05 %IA/g | Biodistribution: Kidneys ([6]; 1 h p.i.): 9.6 ± 1.3 %IA/g | Biodistribution: Liver ([6]; 1 h p.i.): 0.28 ± 0.05 %IA/g | Biodistribution: Lung ([6]; 1 h p.i.): 0.66 ± 0.28 %IA/g | Biodistribution: Muscle ([6]; 1 h p.i.): 0.13 ± 0.06 %IA/g | Biodistribution: PC-3 PIP tumor ([6]; 1 h p.i.): 44 ± 5.3 %IA/g | Biodistribution: PC-3 flu tumor ([6]; 1 h p.i.): 0.39 ± 0.18 %IA/g | Biodistribution: Salivary glands ([6]; 1 h p.i.): 0.28 ± 0.13 %IA/g | Biodistribution: Spleen ([6]; 1 h p.i.): 0.54 ± 0.08 %IA/g | Biodistribution: Stomach ([6]; 1 h p.i.): 0.22 ± 0.05 %IA/g | Tumor-to-blood ([6]; 1 h p.i.): 99 ± 27 | Tumor-to-kidney ([6]; 1 h p.i.): 4.7 ± 0.5 | Tumor-to-liver ([6]; 1 h p.i.): 163 ± 23 | Biodistribution: Blood ([6]; 4 h p.i.): 0.08 ± 0.01 %IA/g | Biodistribution: Bone ([6]; 4 h p.i.): 0.09 ± 0.02 %IA/g | Biodistribution: Heart ([6]; 4 h p.i.): 0.05 ± 0.01 %IA/g | Biodistribution: Intestines ([6]; 4 h p.i.): 0.06 ± 0.01 %IA/g | Biodistribution: Kidneys ([6]; 4 h p.i.): 2.9 ± 0.14 %IA/g | Biodistribution: Liver ([6]; 4 h p.i.): 0.17 ± 0.02 %IA/g | Biodistribution: Lung ([6]; 4 h p.i.): 0.11 ± 0.01 %IA/g | Biodistribution: Muscle ([6]; 4 h p.i.): 0.03 ± 0.00 %IA/g | Biodistribution: PC-3 PIP tumor ([6]; 4 h p.i.): 49 ± 5.5 %IA/g | Biodistribution: PC-3 flu tumor ([6]; 4 h p.i.): 0.13 ± 0.02 %IA/g | Biodistribution: Salivary glands ([6]; 4 h p.i.): 0.07 ± 0.01 %IA/g | Biodistribution: Spleen ([6]; 4 h p.i.): 0.13 ± 0.01 %IA/g | Biodistribution: Stomach ([6]; 4 h p.i.): 0.08 ± 0.01 %IA/g | Tumor-to-blood ([6]; 4 h p.i.): 640 ± 132 | Tumor-to-kidney ([6]; 4 h p.i.): 17 ± 1.6 | Tumor-to-liver ([6]; 4 h p.i.): 302 ± 64 | Biodistribution: Blood ([6]; 24 h p.i.): 0.03 ± 0.00 %IA/g | Biodistribution: Bone ([6]; 24 h p.i.): 0.09 ± 0.01 %IA/g | Biodistribution: Heart ([6]; 24 h p.i.): 0.03 ± 0.00 %IA/g | Biodistribution: Intestines ([6]; 24 h p.i.): 0.03 ± 0.00 %IA/g | Biodistribution: Kidneys ([6]; 24 h p.i.): 1.1 ± 0.09 %IA/g | Biodistribution: Liver ([6]; 24 h p.i.): 0.11 ± 0.02 %IA/g | Biodistribution: Lung ([6]; 24 h p.i.): 0.11 ± 0.09 %IA/g | Biodistribution: Muscle ([6]; 24 h p.i.): 0.02 ± 0.00 %IA/g | Biodistribution: PC-3 PIP tumor ([6]; 24 h p.i.): 43 ± 5.5 %IA/g | Biodistribution: PC-3 flu tumor ([6]; 24 h p.i.): 0.08 ± 0.01 %IA/g | Biodistribution: Salivary glands ([6]; 24 h p.i.): 0.05 ± 0.01 %IA/g | Biodistribution: Spleen ([6]; 24 h p.i.): 0.08 ± 0.01 %IA/g | Biodistribution: Stomach ([6]; 24 h p.i.): 0.04 ± 0.00 %IA/g | Tumor-to-blood ([6]; 24 h p.i.): 1668 ± 302 | Tumor-to-kidney ([6]; 24 h p.i.): 43 ± 10 | Tumor-to-liver ([6]; 24 h p.i.): 383 ± 65 | Biodistribution: Blood ([6]; 48 h p.i.): 0.02 ± 0.00 %IA/g | Biodistribution: Bone ([6]; 48 h p.i.): 0.05 ± 0.01 %IA/g | Biodistribution: Heart ([6]; 48 h p.i.): 0.03 ± 0.00 %IA/g | Biodistribution: Intestines ([6]; 48 h p.i.): 0.02 ± 0.00 %IA/g | Biodistribution: Kidneys ([6]; 48 h p.i.): 0.58 ± 0.05 %IA/g | Biodistribution: Liver ([6]; 48 h p.i.): 0.12 ± 0.01 %IA/g | Biodistribution: Lung ([6]; 48 h p.i.): 0.04 ± 0.01 %IA/g | Biodistribution: Muscle ([6]; 48 h p.i.): 0.01 ± 0.00 %IA/g | Biodistribution: PC-3 PIP tumor ([6]; 48 h p.i.): 28 ± 4.1 %IA/g | Biodistribution: PC-3 flu tumor ([6]; 48 h p.i.): 0.06 ± 0.01 %IA/g | Biodistribution: Salivary glands ([6]; 48 h p.i.): 0.03 ± 0.00 %IA/g | Biodistribution: Spleen ([6]; 48 h p.i.): 0.07 ± 0.00 %IA/g | Biodistribution: Stomach ([6]; 48 h p.i.): 0.03 ± 0.00 %IA/g | Tumor-to-blood ([6]; 48 h p.i.): 1346 ± 166 | Tumor-to-kidney ([6]; 48 h p.i.): 49 ± 7.2 | Tumor-to-liver ([6]; 48 h p.i.): 229 ± 30 | Biodistribution: Blood ([6]; 96 h p.i.): 0.01 ± 0.00 %IA/g | Biodistribution: Bone ([6]; 96 h p.i.): 0.06 ± 0.01 %IA/g | Biodistribution: Heart ([6]; 96 h p.i.): 0.02 ± 0.00 %IA/g | Biodistribution: Intestines ([6]; 96 h p.i.): 0.12 ± 0.12 %IA/g | Biodistribution: Kidneys ([6]; 96 h p.i.): 0.40 ± 0.04 %IA/g | Biodistribution: Liver ([6]; 96 h p.i.): 0.10 ± 0.00 %IA/g | Biodistribution: Lung ([6]; 96 h p.i.): 0.03 ± 0.00 %IA/g | Biodistribution: Muscle ([6]; 96 h p.i.): 0.01 ± 0.00 %IA/g | Biodistribution: PC-3 PIP tumor ([6]; 96 h p.i.): 22 ± 4.3 %IA/g | Biodistribution: PC-3 flu tumor ([6]; 96 h p.i.): 0.04 ± 0.01 %IA/g | Biodistribution: Salivary glands ([6]; 96 h p.i.): 0.03 ± 0.00 %IA/g | Biodistribution: Spleen ([6]; 96 h p.i.): 0.07 ± 0.01 %IA/g | Biodistribution: Stomach ([6]; 96 h p.i.): 0.66 ± 1.01 %IA/g | Tumor-to-blood ([6]; 96 h p.i.): 2053 ± 412 | Tumor-to-kidney ([6]; 96 h p.i.): 56 ± 9.7 | Tumor-to-liver ([6]; 96 h p.i.): 224 ± 33
